In patent US9283160B2, “Stabilization of cosmetic compositions” (BASF SE, priority 2009, dated 2016):

Experiment: Photodegradation of UV absorber combinations, plate-test (recovery after UV irradiation)
Type: physicochemical
Settings: 0-50 MED UV; for Photostabilization of components (e) and (f) after irradiation (summary of Table 5): in presence of piperazine bi-aminobenzophenone
Description: For the determination of photodegradation the so-called “plate-test” is employed: • 2 μl/cm^2 of the formulations are spread on quartz plates (sand-blasted surface of 2.8 cm^2), and rinsed off the plates after 0, 5, 10, 20, and 50 MED of UV irradiation using an Atlas CPS+ solar simulator.
The substances tagged with an asterix (*) are those the recovery percentages refer to. The percentage of component (a) refers to the active.
The experimental error in terms of the standard deviation is in the range of ±3%.

Compound: CCCCC(CC)COC(=O)C=Cc1ccc(OC)cc1 (stereo not shown) [ethylhexyl methoxycinnamate, 2-ethylhexyl 4-methoxycinnamate]
- Photostabilization of component (b) after irradiation (summary of Table 4) (combination with piperazine bi-aminobenzophenone, bis-ethylhexyloxyphenol methoxyphenyl triazine added): can be stabilized by addition of bis-ethylhexyloxyphenol methoxyphenyl triazine
- Photostabilization of component (b) after irradiation (summary of Table 3) (combination with piperazine bi-aminobenzophenone, octocrylene added): can be stabilized by addition of octocrylene

Compound: CCCCC(CC)COC(=O)c1ccc(Nc2nc(Nc3ccc(C(=O)NC(C)(C)C)cc3)nc(Nc3ccc(C(=O)OCC(CC)CCCC)cc3)n2)cc1 (stereo not shown) [di-octyl butamido triazone, Benzoic acid, 4,4′-[[6-[[4-[[(1,1-dimethylethyl)amino]carbonyl]-phenyl]amino]1,3,5-triazine-2,4-diyl]diimino]bis-, bis(2-ethyl-hexyl)ester]
- Photostabilization of components (e) and (f) after irradiation (summary of Table 5): photostabilized in the presence of piperazine bi-aminobenzophenone

Compound: CCCCC(CC)COC(=O)c1ccc(Nc2nc(Nc3ccc(C(=O)OCC(CC)CCCC)cc3)nc(Nc3ccc(C(=O)OCC(CC)CCCC)cc3)n2)cc1 (stereo not shown) [ethylhexyl triazone, Ethylhexyl triazone]
- Photostabilization of components (e) and (f) after irradiation (summary of Table 5): photostabilized in the presence of piperazine bi-aminobenzophenone
